Molecules are shown by their SMILES. Like-named read-outs stand apart in the source and are kept apart here.

In general, MIC refers to the smallest concentration in the dilution series that meets the test's criterion for growth inhibition.

In assay [1] the test system is methicillin-resistant Staphylococcus aureus (MRSA). The assay can be described thus: Planktonic antibacterial broth microdilution assay (Test C), MIC vs MRSA. The following applies: read-out: MIC vs MRSA. The assay is classed as cell-based. The method, then:
(§1) Test C. Planktonic (Free-Living) Antibacterial Assay.
(§2) Planktonic antibacterial activity can be determined using a broth microdilution assay in which log-phase bacteria are grown at 37° C. in appropriate medium containing two-fold serial dilutions of a compound to yield a final concentration ranging from 256 to 0.1 μg/ml. For determination of minimal inhibitory concentration (MIC) values, bacterial growth is monitored after 24 to 48 hours by measuring optical density at 600 nm. […] The minimal inhibitory concentration against methicillin-sensitive Staphylococcus aureus (MSSA) for each of the following representative compounds of the invention was determined to be less than 32 μg/ml.
Representative compounds of the invention were also tested against methicillin-resistant Staphylococcus aureus, vancomycin-resistant Enterococcus faecalis and Enterococcus faecium (VRE), vancomycin-sensitive Enterococcus faecalis and Enterococcus faecium (VSE).

For assay [2], the system named is methicillin-sensitive Staphylococcus aureus (MSSA). Description: Planktonic antibacterial broth microdilution assay (Test C), MIC vs MSSA. The assay is classed as cell-based. The following applies: 37° C., growth read after 24 to 48 hours at OD 600 nm. As to the method: as §1, §2
Background: Broth dilution looks for growth in wells or tubes with falling amounts of substance.

Another assay deals with T1, S. aureus FtsZ (Staphylococcus aureus, UniProt P0A031).
T1 sequence (P0A031 1-390): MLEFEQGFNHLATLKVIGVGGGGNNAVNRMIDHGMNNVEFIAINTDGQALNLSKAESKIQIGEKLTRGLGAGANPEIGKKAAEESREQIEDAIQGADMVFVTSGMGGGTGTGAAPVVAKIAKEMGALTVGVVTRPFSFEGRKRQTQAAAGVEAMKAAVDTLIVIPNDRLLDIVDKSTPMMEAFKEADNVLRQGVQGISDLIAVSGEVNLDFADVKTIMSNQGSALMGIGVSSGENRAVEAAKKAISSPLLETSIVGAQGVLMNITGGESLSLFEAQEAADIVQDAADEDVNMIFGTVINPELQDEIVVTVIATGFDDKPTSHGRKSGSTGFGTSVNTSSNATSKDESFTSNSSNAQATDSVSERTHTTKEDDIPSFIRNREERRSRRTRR
Description: Inhibition of S. aureus FtsZ polymerization and GTPase activity (Tests A and B). The format is biochemical. From the text:
Test A. Determining the Impact of the Compounds of the Invention on FtsZ Polymerization Dynamics.
Compound-induced alteration in FtsZ polymerization dynamics can be tested using a light scattering-based […] using purified FtsZ. Upon addition of GTP, FtsZ self-associates to form polymeric structures that scatter light at 340 nm to a greater extent than the monomeric protein. The impact of the compounds of the invention on the polymerization dynamics of FtsZ can be detected by an increase of decrease in the extent of GTP-induced light scattering relative to that observed in the absence of compound. Quantitation of the overall extent of light scattering as a function of compound concentration to yield a compound concentration at which FtsZ polymerization is inhibited by 50% (IC50) provides an indication of the potency of that compound at altering FtsZ polymerization dynamics.
Test B. Determining the FtsZ GTPase Inhibitory Activities of Compounds of the Invention.
Compound-induced inhibition of the FtsZ GTPase activity can be tested using a colorimetric assay in which the inorganic phosphate (Pi) released upon FtsZ-catalyzed hydrolysis of GTP reacts with malachite green and molybdate under acidic conditions to form a ternary complex that absorbs light at 650 nm, thus enabling quantitation of Pi levels by recording the absorbance at 650 nm (A650). Differing concentrations of test compound are combined with GTP and the reactions (run in triplicate) are initiated by addition of FtsZ. After incubation for 60 minutes at room temperature, the reactions are stopped by addition of an acidic malachite green-molybdate solution containing malachite green oxalate, sodium molybdate, Triton X-100, and 0.7 N HCl. For the purposes of generating a standard curve, each experiment includes reactions containing known concentrations of monobasic potassium phosphate (KH2PO4) in place of FtsZ. Ten minutes following addition of the acidic malachite green-molybdate solution, the A650 value for each reaction is recorded. A standard curve of A650 versus Pi concentration is constructed using the average A650 value obtained for each known KH2PO4 concentration. This standard curve is then fit by linear regression analysis to yield the quantitative relationship between A650 and Pi concentration. The resulting relationship as well as the average A650 value for each test reaction is used to calculate the concentrations of Pi released by the GTPase activity of FtsZ. The released Pi concentration in the absence of test compound is set as the mark for 100% GTPase activity, and is used to calculate the percent GTPase activities in reactions containing test compounds. The percent GTPase activity is then plotted as a function of log (compound concentration), with the resulting curves being fit using an appropriate sigmoidal relationship to obtain the compound concentrations at which GTPase activity is inhibited by 50% (IC50 values).

Where [3] appears, read: broth microdilution, 37° C., growth read after 24 to 48 hours at OD 600 nm.
[4] abbreviates: S. aureus FtsZ, polymerization and/or GTPase activity, read-out: IC50 (compound concentration at which FtsZ polymerization and/or GTPase activity is inhibited by 50%).

Take `CCC[n+]1cc(-c2cc(OC)c(OC)c(-c3ccc(C(C)(C)C)cc3)c2)cc2cc(OC)c(OC)cc21.[I-]` [Example 19]: the MIC in assay [1] (setting [3]) and in assay [2] was no more than 8 µg/mL throughout. Further, at S. aureus FtsZ (setting [4]), the IC50 was less than 79.7 µM.
For `CC(C)(C)c1ccc(-c2cccc3c(CC(=N)N)cccc23)cc1` [Example 56], the MIC in assay [1] (setting [3]) and in assay [2] was no more than 8 µg/mL each time.
`CN(C)CCNCc1ccccc1-c1ccc2c(-c3ccc(C(C)(C)C)cc3)cccc2c1` [Example 59]: the minimum inhibitory concentration (MIC) in assay [1] (setting [3]) and in assay [2] was no more than 8 µg/mL throughout.
As for `C[n+]1ccc(-c2ccc(-c3ccccc3)cc2)c2ccccc21.[I-]` [Example 120], the results for the MIC in assay [1] and in assay [2] were greater than 32 µg/mL and no more than 8 µg/mL, respectively. At S. aureus FtsZ, this molecule came in with an IC50 of less than 118 µM.
As to `C[n+]1cccc2cc(-c3ccc(-c4ccccc4)cc3)ccc21.[I-]` [Example 114], the MIC in assay [1] (setting [3]) and in assay [2] was no more than 8 µg/mL throughout. For the same molecule, the IC50 at S. aureus FtsZ (setting [4]) is less than 118 µM.
Regarding `CC(C)(C)c1ccc(-c2cccc3cc(-c4ccccc4C[N+](C)(C)C)ccc23)cc1.[I-]` [Example 63], the MIC in assay [1] (setting [3]) and in assay [2] was no more than 8 µg/mL in each case. The IC50 at S. aureus FtsZ (setting [4]) was less than 93.4 µM.
On to `CC(C)(C)c1ccc(-c2cccc3c(CCN=C(N)N)cccc23)cc1` [Example 37], for which the MIC in assay [1] (setting [3]) and in assay [2] was no more than 8 µg/mL throughout.
As to `CC(C)(C)c1ccc(-c2cccc3c(CN)cccc23)cc1` [Example 41], the MIC in assay [1] (setting [3]) and in assay [2] was no more than 8 µg/mL throughout. Besides, the IC50 on S. aureus FtsZ (setting [4]) is less than 173 µM.
In the case of `CC(C)(C)c1ccc(-c2cccc3cc(-c4ccccc4CNC(=N)N)ccc23)cc1` [Example 104], the MIC in assay [2] is no more than 8 µg/mL. Further, the IC50 at S. aureus FtsZ (setting [4]) is less than 123 µM.
Regarding `CC(C)(C)c1ccc(-c2cccc3cc(-c4ccccc4CNCCN)ccc23)cc1` [Example 62], the MIC in assay [1] (setting [3]) and in assay [2] was no more than 8 µg/mL throughout.
In the case of `COc1cc(-c2cc3ccccc3[n+](C)c2)cc(-c2ccc(C(C)(C)C)cc2)c1OC.[I-]` [Example 11], the MIC in assay [1] (setting [3]) and in assay [2] was no more than 8 µg/mL each time.
`CC(C)(C)c1ccc(-c2cccc3c(CNC(=N)N)cccc23)cc1` [Example 42]: the MIC in assay [1] (setting [3]) and in assay [2] was no more than 8 µg/mL throughout. Moreover, the IC50 at S. aureus FtsZ (setting [4]) was less than 151 µM.
Regarding `CNCc1ccccc1-c1ccc2c(-c3ccc(C(C)(C)C)cc3)cccc2c1` [Example 61], the MIC in assay [1] (setting [3]) and in assay [2] was no more than 8 µg/mL in each case.
With `CC(C)(C)c1ccc(-c2cccc3c(CCN)cccc23)cc1` [Example 36], the MIC in assay [1] (setting [3]) and in assay [2] was no more than 8 µg/mL in each case.
Turning to `C[n+]1ccc2c(-c3ccc(-c4ccccc4)cc3)cccc2c1.[I-]` [Example 112], the minimal inhibitory concentration (MIC) in assay [1] was 32 µg/mL; in assay [2], no more than 8 µg/mL. This molecule also displayed an IC50 against S. aureus FtsZ of less than 118 µM.
On to `C[n+]1cc(-c2cc(-c3ccccc3)cc(-c3ccccc3)c2)cc2ccccc21.[I-]` [Example 35], for which the MIC in assay [1] (setting [3]) and in assay [2] was no more than 8 µg/mL in each case.
For `C[n+]1cccc2ccc(-c3ccc(-c4ccccc4)cc3)cc21.[I-]` [Example 116], the values for the MIC in assay [1] (setting [3]) and in assay [2] were 16 µg/mL and no more than 8 µg/mL, respectively.

For the origin of these results see US9102617B2, “Antimicrobial agents” (Rutgers, The State University of New Jersey, priority 2010, dated 2015).
